Tested on: patients with refractory metastatic colorectal cancer (mCRC)
Experiment: PFS, OS and disease control in the testing (validation) cohort of refractory mCRC patients receiving TAS-102 (n=129, Italy), by baseline characteristics, SNP genotype and toxicity
Assay type: in vivo, human
Method: All patients underwent the treatment in salvage-line setting. […]
Genomic DNA was extracted from peripheral whole blood in patients of all cohorts using the QIAmp Kit (Qiagen, Valencia, Calif., USA) according to the manufacturer's protocol (www.qiagen.com). The candidate SNPs were genotyped using PCR-based direct DNA sequence analysis by ABI 3100A Capillary Genetic Analyzer and Sequencing Scanner v1.0 (Applied Biosystems). Amplification of extracted DNA was carried out using both forward and reverse primers for each gene polymorphism as shown in Table 1. […] The investigators analyzing SNPs were blinded to the clinical data of the study patients.
The primary endpoint in this study was progression-free survival (PFS), and the secondary endpoints were overall survival (OS) and disease control rate (DCR). PFS was calculated from the date of starting treatment to the first observation of disease progression or death from any cause. If a patient had no disease progression or death, PFS was censored at the date of last follow up. OS was calculated from the date of starting treatment until the date of death from any cause or the date of the last follow-up, at which point OS was censored. The disease control rate (DCR) was defined as the proportion of patients who achieved a stable disease (SD) or […] according to RECISTv1.1. Chi-square test was used to examine the difference in baseline patient characteristics among the three cohorts. Allelic distribution of all SNPs by ethnicity for deviation from Hardy-Weinberg equilibrium and the allelic frequencies of SNPs were tested using the Chi-square tests with one degree of freedom. The associations between candidate SNPs and disease control, and toxicities were examined using contingency tables and Fisher's exact test. The associations of SNPs with PFS and OS were analysed using Kaplan-Meier curves and the log-rank test. Because the true mode of inheritance of candidate SNPs was not established yet, a codominant or dominant genetic model if appropriate was considered.
All patients underwent the treatment in salvage-line setting. […] In all patients, adverse events were graded according to the Common Terminology Criteria for Adverse Events, version 4.0. […]
Genomic DNA was extracted from peripheral whole blood in patients of all cohorts using the QIAmp Kit (Qiagen, Valencia, Calif., USA) according to the manufacturer's protocol (www.qiagen.com). The candidate SNPs were tested using PCR-based direct DNA sequence analysis by ABI 3100A Capillary Genetic Analyzer and Sequencing Scanner v1.0 (Applied Biosystems). […] The investigators analyzing SNPs were blinded to the clinical data.
The primary endpoint in this study was progression-free survival (PFS), and the secondary endpoints were overall survival (OS) and disease control rate (DCR).

[1] = validation cohort, Performance status ECOG 1+ vs ECOG 0 (Ref.), univariate
[2] = validation cohort, Peritoneal No
[3] = validation cohort, Peritoneal No vs Yes (Ref.), univariate
[4] = validation cohort, Peritoneal Yes
[5] = validation cohort, Pre-chemo numbers <4
[6] = validation cohort, Pre-chemo numbers ≥4
[7] = validation cohort, Pre-chemo numbers ≥4 vs <4 (Ref.), univariate
[8] = validation cohort, Previous anti-EGFR No
[9] = validation cohort, Previous anti-EGFR No vs Yes (Ref.), univariate
[10] = validation cohort, Previous anti-EGFR Yes
[11] = validation cohort, Previous anti-VEGF No
[12] = validation cohort, Previous anti-VEGF No vs Yes (Ref.), univariate
[13] = validation cohort, Previous anti-VEGF Yes
[14] = validation cohort, Primary tumor resection No
[15] = validation cohort, Primary tumor resection No vs Yes (Ref.), univariate
[16] = validation cohort, Primary tumor resection Yes
[17] = validation cohort, Prior REGORA No
[18] = validation cohort, Prior REGORA No vs Yes (Ref.), univariate
[19] = validation cohort, Prior REGORA Yes
[20] = validation cohort, RAS status Mutant
[21] = validation cohort, RAS status Mutant vs Wild type (Ref.), univariate
[22] = validation cohort, RAS status Wild type
[23] = validation cohort, Sex Female vs Male (Ref.), univariate
[24] = validation cohort, Time to metastasis Metachronous
[25] = validation cohort, Time to metastasis Metachronous vs Synchronous (Ref.), univariate
[26] = validation cohort, Time to metastasis Synchronous
[27] = validation cohort, Tumor site Left
[28] = validation cohort, Tumor site Left vs Right (Ref.), univariate
[29] = validation cohort, Tumor site Right
[30] = validation cohort, XRCC3 rs861539 A/A
[31] = validation cohort, XRCC3 rs861539 A/A vs Any G (Ref.), multivariable
[32] = validation cohort, XRCC3 rs861539 A/A vs Any G (Ref.), univariate
[33] = validation cohort, XRCC3 rs861539 A/A vs G/G (Ref.), multivariable
[34] = validation cohort, XRCC3 rs861539 A/A vs G/G (Ref.), univariate
[35] = validation cohort, XRCC3 rs861539 Any A
[36] = validation cohort, XRCC3 rs861539 Any A vs G/G (Ref.), multivariable
[37] = validation cohort, XRCC3 rs861539 Any A vs G/G (Ref.), univariate
[38] = validation cohort, XRCC3 rs861539 Any G
[39] = validation cohort, XRCC3 rs861539 G/A
[40] = validation cohort, XRCC3 rs861539 G/A vs G/G (Ref.), multivariable
[41] = validation cohort, XRCC3 rs861539 G/A vs G/G (Ref.), univariate
[42] = validation cohort, XRCC3 rs861539 G/G
[43] = validation cohort, ATM rs609429 any G allele
[44] = validation cohort, ATM rs609429 any G vs C/C, univariate
[45] = whole testing (validation) cohort

Trifluridine/tipiracil [TAS-102]
HR OS [1]: 2.15
HR PFS [1]: 1.43
Median OS [2]: 9.0 months
Median PFS [2]: 2.0 months
HR OS [3]: 0.80
HR PFS [3]: 0.74
Median OS [4]: 5.3 months
Median PFS [4]: 1.9 months
Median OS [5]: 5.1 months
Median PFS [5]: 1.9 months
Median OS [6]: 8.7+ months
Median PFS [6]: 2.1 months
HR OS [7]: 0.57
HR PFS [7]: 0.66
Median OS [8]: 4.4 months
Median PFS [8]: 1.9 months
HR OS [9]: 2.63
HR PFS [9]: 1.53
Median OS [10]: 8.8+ months
Median PFS [10]: 2.1 months
Median OS [11]: 6.6+ months
Median PFS [11]: 2.8 months
HR OS [12]: 0.60
HR PFS [12]: 0.67
Median OS [13]: 5.5 months
Median PFS [13]: 2.0 months
Median OS [14]: 3.9 months
Median PFS [14]: 1.8 months
HR OS [15]: 1.87
HR PFS [15]: 2.13
Median OS [16]: 9.0 months
Median PFS [16]: 2.0 months
Median OS [17]: 5.4 months
Median PFS [17]: 2.0 months
HR OS [18]: 1.36
HR PFS [18]: 1.20
Median OS [19]: 8.7+ months
Median PFS [19]: 2.0 months
Median OS [20]: 5.1 months
Median PFS [20]: 1.9 months
HR OS [21]: 1.48
HR PFS [21]: 1.21
Median OS [22]: 8.8+ months
Median PFS [22]: 2.0 months
Median OS (validation cohort, Sex Female): 5.3 months
Median PFS (validation cohort, Sex Female): 2.1 months
HR OS [23]: 1.22
HR PFS [23]: 0.98
Median OS (validation cohort, Sex Male): 9.0 months
Median PFS (validation cohort, Sex Male): 1.9 months
Median OS [24]: 8.5+ months
Median PFS [24]: 2.0 months
HR OS [25]: 0.59
HR PFS [25]: 0.75
Median OS [26]: 5.2 months
Median PFS [26]: 1.9 months
Median OS [27]: 9.0 months
Median PFS [27]: 2.0 months
HR OS [28]: 0.78
HR PFS [28]: 1.07
Median OS [29]: 5.1 months
Median PFS [29]: 1.9 months
Disease Control CR/PR/SD, patients n (%) [30]: 3 (12%)
Median OS (95% CI) [30]: 4.2 (3.6, 8.8+) months
Median PFS (95% CI) [30]: 1.9 (1.8, 2.0) months
PD, patients n (%) [30]: 22 (88%)
HR OS (95% CI) [31]: 1.05 (0.56, 1.97)
HR PFS (95% CI) [31]: 1.30 (0.81, 2.09)
HR OS (95% CI) [32]: 1.29 (0.70, 2.39)
HR PFS (95% CI) [32]: 1.37 (0.86, 2.18)
HR OS (95% CI) [33]: 0.93 (0.46, 1.88)
HR PFS (95% CI) [33]: 1.26 (0.74, 2.14)
HR OS (95% CI) [34]: 1.13 (0.57, 2.22)
HR PFS (95% CI) [34]: 1.34 (0.80, 2.25)
Disease Control CR/PR/SD, patients n (%) [35]: 19 (26%)
Median OS (95% CI) [35]: 5.8 (4.1, 9.0+) months
Median PFS (95% CI) [35]: 2.0 (1.9, 2.1) months
PD, patients n (%) [35]: 55 (74%)
HR OS (95% CI) [36]: 0.84 (0.47, 1.49)
HR PFS (95% CI) [36]: 1.05 (0.69, 1.60)
HR OS (95% CI) [37]: 0.88 (0.51, 1.54)
HR PFS (95% CI) [37]: 1.07 (0.72, 1.61)
Disease Control CR/PR/SD, patients n (%) [38]: 32 (32%)
Median OS (95% CI) [38]: 5.8 (4.7, 9.0+) months
Median PFS (95% CI) [38]: 2.0 (1.9, 2.3) months
PD, patients n (%) [38]: 67 (68%)
Disease Control CR/PR/SD, patients n (%) [39]: 16 (33%)
Median OS (95% CI) [39]: 9.0 (4.6, 9.0+) months
Median PFS (95% CI) [39]: 2.0 (1.9, 2.3) months
OS [39]: 9.0 months
PD, patients n (%) [39]: 33 (67%)
HR OS (95% CI) [40]: 0.79 (0.41, 1.51)
HR PFS (95% CI) [40]: 0.95 (0.59, 1.51)
HR OS (95% CI) [41]: 0.75 (0.40, 1.43)
HR PFS (95% CI) [41]: 0.96 (0.62, 1.50)
Disease Control CR/PR/SD, patients n (%) [42]: 16 (32%)
Median OS (95% CI) [42]: 5.5 (3.6, 8.7+) months
Median PFS (95% CI) [42]: 2.1 (1.7, 2.5) months
PD, patients n (%) [42]: 34 (68%)
OS [43]: not reached
PFS [43]: 2.0 months
HR for OS [44]: 0.73
HR for PFS [44]: 0.78
OS (validation cohort, XRCC3 rs861539 C/C variant (so in the source)): 5.5 months
HR for OS (validation cohort, XRCC3 rs861539 G/A vs C/C (so in the source)): 0.75
Median OS [45]: 5.7 months
Median PFS [45]: 2.0 months

Reference: patent publication US20190233884A1 (University of Southern California, priority 2016, published 2019)
